Results: PubChem BioAssay (NCI)
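48-hour exposure; five concentrations; linearly interpolated endpoints. TGI: total growth inhibition.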

Tests used:
Experiment in all cases: NCI-60 cell line screen, 48 h
[1] = test system: T-47D breast
[2] = test system: SK-MEL-5 melanoma
[3] = test system: KM12 colon
[4] = test system: UO-31 renal
[5] = test system: A549 NSCLC
[6] = test system: SNB-19 CNS
[7] = test system: BT-549 breast
[8] = test system: SK-OV-3 ovarian
[9] = test system: CAKI-1 renal
[10] = test system: 786-0 renal
[11] = test system: U251 CNS
[12] = test system: SF-539 CNS
[13] = test system: MDA-N
[14] = test system: CCRF-CEM leukemia
[15] = test system: NCI-H23 lung
[16] = test system: MALME-3M melanoma
[17] = test system: SK-MEL-28 melanoma
[18] = test system: HOP-62 NSCLC
[19] = test system: MDA-MB-231 breast
[20] = test system: HCT-15 colon
[21] = test system: SNB-75 CNS
[22] = test system: OVCAR-8 ovarian
[23] = test system: RXF 393 renal
[24] = test system: SK-MEL-2 melanoma
[25] = test system: OVCAR-4 ovarian
[26] = test system: HCT-116 colon
[27] = test system: DU-145 prostate
[28] = test system: MCF7 breast
[29] = test system: SW-620 colon
[30] = test system: NCI-H226 lung
[31] = test system: HL-60(TB) leukemia
[32] = test system: RPMI-8226 leukemia
[33] = test system: OVCAR-3 ovarian
[34] = test system: PC-3 prostate
[35] = test system: UACC-62 melanoma
[36] = test system: UACC-257 melanoma
[37] = test system: HT29 colon
[38] = test system: OVCAR-5 ovarian
[39] = test system: TK-10 renal
[40] = test system: NCI-H522 lung
[41] = test system: SF-295 CNS
[42] = test system: ACHN renal
[43] = test system: IGROV1 ovarian
[44] = test system: SR leukemia
[45] = test system: MOLT-4 leukemia
[46] = test system: K-562 leukemia
[47] = test system: COLO 205 colon
[48] = test system: M14 melanoma
[49] = test system: SF-268 CNS
[50] = test system: LOX IMVI melanoma
[51] = test system: MDA-MB-435
[52] = test system: HS 578T breast
[53] = test system: SN12C renal
[54] = test system: NCI-H460 lung
[55] = test system: HCC-2998 colon
[56] = test system: A498 renal
[57] = test system: EKVX NSCLC
[58] = test system: NCI/ADR-RES ovarian

In the case of C[N+](C)([O-])CCCNc1ccnc2cccc([N+](=O)[O-])c12, the TGI [1] is reported as > 100 µM, the TGI [2] is reported as 33.4 µM and the TGI [3] is reported as > 100 µM. For the same molecule, the TGI [4] was > 100 µM, the TGI [5] was > 100 µM and the TGI [6] was > 100 µM. For the same molecule, the TGI [7] was > 100 µM, the TGI [8] was > 100 µM and the TGI [9] was > 100 µM. For the same molecule, the TGI [10] was > 100 µM, the TGI [11] was > 100 µM and the TGI [12] was 53.1 µM. The TGI [13] was > 100 µM, the TGI [14] was > 100 µM and the TGI [15] was > 100 µM. For the same molecule, the TGI [16] was 87.6 µM, the TGI [17] was > 100 µM and the TGI [18] was > 100 µM. The TGI [19] was > 100 µM, the TGI [20] was 61.6 µM and the TGI [21] was > 100 µM. The TGI [22] was > 100 µM, the TGI [23] was 79.1 µM and the TGI [24] was 45.8 µM. For the same molecule, the TGI [25] was 55.3 µM, the TGI [26] was > 100 µM and the TGI [27] was 44.1 µM. The TGI [28] was > 100 µM, the TGI [29] was > 100 µM and the TGI [30] was > 100 µM. The TGI [31] was 54.1 µM, the TGI [32] was 57.6 µM and the TGI [33] was 44.9 µM. For the same molecule, the TGI [34] was > 100 µM, the TGI [35] was > 100 µM and the TGI [36] was > 100 µM. The TGI [37] was > 100 µM, the TGI [38] was > 100 µM and the TGI [39] was > 100 µM. The TGI [40] was 28 µM, the TGI [41] was > 100 µM and the TGI [42] was > 100 µM. For the same molecule, the TGI [43] was > 100 µM, the TGI [44] was > 100 µM and the TGI [45] was 67.6 µM. For the same molecule, the TGI [46] was > 100 µM, the TGI [47] was 46.4 µM and the TGI [48] was > 100 µM. The TGI [49] was 97.5 µM, the TGI [50] was > 100 µM and the TGI [51] was > 100 µM. The TGI [52] was 77.6 µM, the TGI [53] was > 100 µM and the TGI [54] was 31.3 µM. For the same molecule, the TGI [55] was > 100 µM, the TGI [56] was > 100 µM and the TGI [57] was > 100 µM.
COc1ccc(N2C(=O)C3CC4=CC(=O)C[C@H]4[C@H]32)cc1 (stereo partly specified) was tested, and the TGI [1] was > 100 µM, the TGI [3] was > 100 µM and the TGI [4] was > 100 µM. The TGI [5] was > 100 µM, the TGI [6] was > 100 µM and the TGI [7] was > 100 µM. For the same molecule, the TGI [8] was > 100 µM, the TGI [9] was 87.6 µM and the TGI [10] was > 100 µM. For the same molecule, the TGI [11] was > 100 µM, the TGI [13] was 82.1 µM and the TGI [15] was > 100 µM. The TGI [17] was > 100 µM, the TGI [18] was > 100 µM and the TGI [19] was > 100 µM. For the same molecule, the TGI [20] was > 100 µM, the TGI [21] was > 100 µM and the TGI [22] was > 100 µM. For the same molecule, the TGI [23] was > 100 µM, the TGI [24] was > 100 µM and the TGI [25] was > 100 µM. For the same molecule, the TGI [26] was > 100 µM, the TGI [27] was > 100 µM and the TGI [28] was > 100 µM. For the same molecule, the TGI [29] was > 100 µM, the TGI [30] was > 100 µM and the TGI [58] was > 100 µM. For the same molecule, the TGI [32] was > 100 µM, the TGI [33] was > 100 µM and the TGI [34] was > 100 µM. The TGI [35] was > 100 µM, the TGI [36] was > 100 µM and the TGI [38] was > 100 µM. The TGI [39] was > 100 µM, the TGI [41] was > 100 µM and the TGI [42] was > 100 µM. The TGI [44] was > 100 µM, the TGI [45] was > 100 µM and the TGI [46] was > 100 µM. The TGI [47] was > 100 µM, the TGI [48] was > 100 µM and the TGI [49] was > 100 µM. For the same molecule, the TGI [50] was > 100 µM, the TGI [51] was > 100 µM and the TGI [52] was > 100 µM. For the same molecule, the TGI [53] was > 100 µM, the TGI [54] was > 100 µM and the TGI [55] was > 100 µM. The TGI [56] was > 100 µM.
